In publication PMC11873045, “Phytochemical profiling and various biological activities of Phlomis tuberosa L” (Scientific Reports, 2025):

Assays:
[1] = CUPRAC (cupric reducing antioxidant capacity) assay; conditions: for CUPRAC assay Absorbance: at 200 µg/mL; for CUPRAC assay A0.50: concentration giving absorbance of 0.50
Protocol: (§1) Antioxidant activities of all extracts were assessed by using different methods including β-carotene-linoleic acid assay, DPPH assay, ABTS assay, CUPRAC assay and Metal chelating assay. […] The DPPH assay was performed by using a spectrophotometer according to typical methods documented previously[23]. The ABTS^+assay was carried out as described previously by Re et al., (1999)[24]. The cupric reducing antioxidant capacity (CUPRAC) was evaluated by following the method published Apak et al., (2004)[25]. α-tocopherol and butylated hydroxy anisole (BHA) were used as antioxidant standards to compare the β-carotene-linoleic acid, DPPH, ABTS and CUPRAC assays. The metal chelating assay of extracts for Fe^+2 was performed by using a spectrophotometer as the method reported by Tel et al., (2012)[26]. Ethylenediaminetetraacetic acid (EDTA) was used as a standard.
(§2) IC50 values were calculated using a graph plotted between concentration (µg/mL) and percentage inhibition (%). A graph that plotted absorbance against concentration (µg/mL) was used to determine A0.50 values.

[2] = DPPH free radical scavenging assay; conditions: for DPPH assay Inhibition (%): at 200 µg/mL
Protocol: as §1, §2

[3] = ABTS cation radical scavenging assay; conditions: for ABTS assay Inhibition (%): at 200 µg/mL
Protocol: as §1, §2

[4] = β-carotene-linoleic acid assay (inhibition of lipid peroxidation); conditions: for β-Carotene-linoleic acid assay Inhibition (%): at 200 µg/mL
Protocol: as §1, §2

[5] = tested on: α-glucosidase; experiment: α-glucosidase inhibition (PNPG); assay type: biochemical, Saccharomyces cerevisiae; conditions: at 200 µg/mL
Protocol: 50 µL of phosphate buffer (0.01 M pH 6.9), 10 µL of sample solution, 50 µL of α-glucosidase from Saccharomyces cerevisiae in phosphate buffer (0.01 M pH 6.0) and 25 µL of PNPG (4-N-nitrophenyl-α-d-glucopyranoside) in phosphate buffer (0.01 M pH 6.9) were mixed in a 96-well microplate. Then the solution was incubated for 20 min at 37 °C.

[6] = target: T1, α-amylase (Sus scrofa, UniProt P00690); experiment: α-amylase inhibition (starch-iodine method); assay type: biochemical, porcine
T1 construct: host or cells: porcine pancreas
T1 sequence (P00690 16-511): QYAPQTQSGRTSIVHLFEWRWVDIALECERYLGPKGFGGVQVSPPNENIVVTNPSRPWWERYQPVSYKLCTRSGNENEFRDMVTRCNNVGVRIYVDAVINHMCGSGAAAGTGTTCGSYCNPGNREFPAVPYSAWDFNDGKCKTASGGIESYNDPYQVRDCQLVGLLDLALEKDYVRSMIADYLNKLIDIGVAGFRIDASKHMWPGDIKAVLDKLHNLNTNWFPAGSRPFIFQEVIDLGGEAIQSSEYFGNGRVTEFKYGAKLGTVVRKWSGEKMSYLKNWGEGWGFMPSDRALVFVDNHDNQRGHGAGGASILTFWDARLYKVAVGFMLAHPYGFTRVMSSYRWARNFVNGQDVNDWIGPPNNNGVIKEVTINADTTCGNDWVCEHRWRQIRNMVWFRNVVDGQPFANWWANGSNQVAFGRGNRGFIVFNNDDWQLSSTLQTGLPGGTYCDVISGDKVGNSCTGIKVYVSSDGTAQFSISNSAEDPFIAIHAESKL
Protocol: The α-amylase inhibitory activity was evaluated by using starch-iodine method[30]. The enzyme α-amylase from porcine pancreas was used and enzyme solution was prepared with phosphate buffer (20 mM pH = 6.9 phosphate buffer prepared with 6 mM NaCl). Then, 50 µL of α-amylase and 25 µL of sample solutions were mixed in a 96-well microplate. The mixture was pre-incubated for 10 min at 37 °C. Then, 50 µL of starch solution (0.05%) was added and incubated for 10 min at 37 °C. Following incubation, the reaction was completed by adding HCl (0.1 M, 25 µL) and Lugol (100 µL) solutions, and the absorbance was recorded at 565 nm.
(§3) IC50 values were calculated using a graph plotted between concentration (µg/mL) and percentage inhibition (%).

[7] = tested on: tyrosinase; experiment: Tyrosinase inhibition (L-DOPA substrate); assay type: biochemical; conditions: at 200 µg/mL
Protocol: Tyrosinase enzyme inhibitory activity was measured by the spectrophotometric method as described by Masuda et al., (2005)[29]. L-DOPA was utilized as substrate of the reaction. 150 µL of sodium phosphate buffer (pH 6.8, 100 mM), 10 µL of sample and 20 µL of tyrosinase enzyme solution in buffer were mixed and incubated for 10 min at 37 °C. Following incubation, 20 µL of L-DOPA was added. The absorbances in a 96-well microplate were monitored at 475 nm after 10 min of incubation at 37 °C.
as §3

[8] = Metal chelating assay
Protocol: as §1, §2

[9] = target: T2, BChE (Equus caballus, UniProt P81908); experiment: Butyrylcholinesterase inhibition (DTNB spectrophotometric); assay type: biochemical, horse
T2 construct: host or cells: equine serum
Protocol: The inhibitory activities of acetylcholinesterase and butyrylcholinesterase enzymes of the extracts were determined using spectrophotometer following the protocol described by Deveci et al., (2019) with slight modifications[27]. Acetylthiocholine iodide and butyrylthiocholine chloride were utilized as reaction substrates, while AChE from electric eels and BChE from horse serum were applied. Employing DTNB (5,5′-Dithio-bis(2-nitrobenzoic) acid), the cholinesterase activity was measured. In a nutshell, 130 µL of 100 mM sodium phosphate buffer (pH 8.0), 10 µL of sample solution at different concentrations, and 20 µL of enzyme (AChE or BChE) solution in buffer were mixed and incubated for 15 min at 25 °C, and 20 µL of 0.5 mM DTNB was added. Following that, 0.71 mM, 20 µL of acetylthiocholine iodide or 0.2 mM, 20 µL of butyrylthiocholine chloride were added to initiate the reaction. Utilizing a 96-well microplate reader, the hydrolysis of these substrates was observed spectrophotometrically by the formation of a yellow 5-thio-2-nitrobenzoate anion at a wavelength of 412 nm.
as §2

[10] = target: urease (Canavalia ensiformis, UniProt P07374); assay type: biochemical, jack bean
Chain of urease (P07374 whole entry, looked up): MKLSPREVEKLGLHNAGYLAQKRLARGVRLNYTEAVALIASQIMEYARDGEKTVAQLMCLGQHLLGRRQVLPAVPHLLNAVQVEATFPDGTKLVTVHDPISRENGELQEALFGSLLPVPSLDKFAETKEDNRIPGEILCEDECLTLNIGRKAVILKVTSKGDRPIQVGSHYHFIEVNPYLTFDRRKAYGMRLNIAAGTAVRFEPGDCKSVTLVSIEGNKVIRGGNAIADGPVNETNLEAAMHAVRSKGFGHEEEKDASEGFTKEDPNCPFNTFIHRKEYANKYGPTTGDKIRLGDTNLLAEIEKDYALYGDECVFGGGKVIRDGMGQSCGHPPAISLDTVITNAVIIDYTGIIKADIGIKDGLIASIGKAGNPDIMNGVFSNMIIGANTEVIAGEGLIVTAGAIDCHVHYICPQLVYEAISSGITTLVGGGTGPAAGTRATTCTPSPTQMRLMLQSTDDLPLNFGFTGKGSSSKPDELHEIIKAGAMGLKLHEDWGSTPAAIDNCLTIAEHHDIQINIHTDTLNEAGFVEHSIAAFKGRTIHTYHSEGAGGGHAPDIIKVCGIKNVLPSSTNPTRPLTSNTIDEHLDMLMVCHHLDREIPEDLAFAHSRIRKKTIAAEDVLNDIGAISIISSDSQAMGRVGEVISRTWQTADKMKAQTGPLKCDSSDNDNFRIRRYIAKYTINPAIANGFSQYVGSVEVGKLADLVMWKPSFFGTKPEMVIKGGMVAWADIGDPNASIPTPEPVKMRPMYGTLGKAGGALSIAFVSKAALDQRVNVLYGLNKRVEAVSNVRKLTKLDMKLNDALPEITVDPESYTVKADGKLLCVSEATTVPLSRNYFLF

T2 sequence (P81908 whole entry): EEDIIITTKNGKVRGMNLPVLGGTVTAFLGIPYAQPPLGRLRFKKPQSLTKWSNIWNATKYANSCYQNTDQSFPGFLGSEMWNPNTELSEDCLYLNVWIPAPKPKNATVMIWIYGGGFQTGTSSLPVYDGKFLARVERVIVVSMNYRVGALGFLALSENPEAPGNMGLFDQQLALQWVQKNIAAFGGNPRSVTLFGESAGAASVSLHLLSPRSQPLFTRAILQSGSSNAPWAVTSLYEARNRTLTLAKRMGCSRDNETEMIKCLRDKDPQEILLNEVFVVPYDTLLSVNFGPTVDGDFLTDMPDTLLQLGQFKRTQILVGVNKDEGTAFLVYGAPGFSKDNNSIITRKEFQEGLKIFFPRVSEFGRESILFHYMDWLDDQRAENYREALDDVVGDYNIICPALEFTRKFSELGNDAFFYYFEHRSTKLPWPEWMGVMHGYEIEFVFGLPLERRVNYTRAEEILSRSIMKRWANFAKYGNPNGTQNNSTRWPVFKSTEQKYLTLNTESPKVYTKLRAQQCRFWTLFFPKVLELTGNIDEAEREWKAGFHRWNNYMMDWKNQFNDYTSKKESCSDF

In the case of `COc1ccc(O)c(C(C)(C)C)c1` [BHA, butylated hydroxyanisole], the “CUPRAC assay Absorbance” value [1] is reported as 2.45 ± 0.07, the “CUPRAC assay A0.50” value [1] is reported as 25.40 ± 0.42 µg/mL and the “DPPH assay IC50” value [2] is reported as 19.50 ± 0.30 µg/mL. The “DPPH assay Inhibition (%)” value [2] was 87.90 ± 0.44%, the “ABTS assay IC50” value [3] was 12.70 ± 0.10 µg/mL and the “ABTS assay Inhibition (%)” value [3] was 88.93 ± 0.21%. The “β-Carotene-linoleic acid assay IC50” value [4] was 1.50 ± 0.03 µg/mL and the “β-Carotene-linoleic acid assay Inhibition (%)” value [4] was 96.20 ± 0.28%.

For `C[C@H]1O[C@H](O[C@H]2[C@H](O)[C@@H](O)[C@@H](O[C@H]3[C@H](O)[C@@H](O)C(O)O[C@@H]3CO)O[C@@H]2CO)[C@H](O)[C@@H](O)[C@@H]1N[C@H]1C=C(CO)[C@@H](O)[C@H](O)[C@H]1O` (stereo partly drawn) [Acarbose], the “α-glucosidase Inhibition (%)” value [5] was 56.70 ± 0.75% and the inhibition at 200 µg/mL [6] was 82.1 ± 0.27%.

For `O=c1cc(CO)occ1O` [Kojic acid], the “Tyrosinase inhibitory Inhibition (%)” value [7] was 83.54 ± 0.56%.

With `Cc1c(C)c2c(c(C)c1O)CC[C@@](C)(CCC[C@H](C)CCC[C@H](C)CCCC(C)C)O2` [α-Tocopherol, α-tocopherol] the “CUPRAC assay Absorbance” value [1] was 0.88 ± 0.03, the “CUPRAC assay A0.50” value [1] was 60.45 ± 0.30 µg/mL and the “DPPH assay IC50” value [2] was 38.20 ± 0.50 µg/mL. The “DPPH assay Inhibition (%)” value [2] was 84.25 ± 0.36%, the “ABTS assay IC50” value [3] was 34.75 ± 0.55 µg/mL and the “ABTS assay Inhibition (%)” value [3] was 83.63 ± 0.34%. For the same compound, the “β-Carotene-linoleic acid assay IC50” value [4] was 2.10 ± 0.05 µg/mL and the “β-Carotene-linoleic acid assay Inhibition (%)” value [4] was 95.73 ± 0.44%.

With `O=C(O)CN(CCN(CC(=O)O)CC(=O)O)CC(=O)O` [EDTA, ethylenediaminetetraacetic acid] the “Metal chelating assay IC50” value [8] was 5.50 ± 0.25 µg/mL and the “Metal chelating assay Inhibition (%)” value ([8]; at 200 µg/mL) was 94.40 ± 0.35%.

`COc1ccc2c3c1O[C@H]1C[C@@H](O)C=C[C@@]31CCN(C)C2` [Galantamine, galantamine] showed an inhibition at 200 µg/mL [9] of 79.43 ± 0.6%.

For `NC(N)=S` [Thiourea, thiourea], the “Urease inhibitory IC50” value [10] was 8.20 ± 0.36 µg/mL and the “Urease inhibitory Inhibition (%)” value ([10]; at 200 µg/mL) was 87.37 ± 0.52%.
